Experimental findings from US20260234211A1, “POLYPEPTIDE HAVING MODIFIED STRUCTURE AND USE THEREOF” (Guangdong Raynovent Biotech Co., Ltd., priority 2023, published 2026) are described below.

The target in series [1] is T1, GLP-1R (Homo sapiens, UniProt P43220).
T1 construct: host or cells: HEK293
Description: In vitro GLP-1R agonistic activity test (cAMP, HEK293 cell line). Format: cell-based. As to the method: (§1) The cell lines were constructed by Pharmaron Inc. See details in the table below.
(§2) The test compounds were diluted at a 5-fold dilution factor in 10 points, starting from an initial concentration of 200 nM.
(§3) 1) The cell lines were cultured respectively in complete medium at 37° C. and 5% CO2.
(§4) 1) Eu-cAMP tracer was freeze-thawed and diluted 50 fold with detection buffer; and Ulight-anti-cAMP was freeze-thawed and diluted 150 fold with detection buffer.
(§5) 3) 10 μL of Eu-cAMP tracer was added and then 10 μL of Uligh-anti-cAMP was added into experimental wells respectively.
(§6) 4) The reaction plate was centrifuged at 200 g at room temperature for 30 s and left for stand at 25° C. for 1 h.

Series [2] is described as follows: Metabolic stability in human kidney S9. The settings on record: human, s9. In kind it is in vitro ADME. The protocol:
The metabolic stability of the compounds in human kidney was evaluated to determine whether the drugs would be degraded by metabolic enzymes in the kidney to affect the efficacies and pharmacokinetics. 1. Relevant solutions were formulated. 2. a) With cofactors (NADPH & UDPGA): NADPH and UDPGA were added during the incubation. […] H2O was added into the culture solution. The final concentration of KS9 Fractions was 1 mg/mL. The mixture was pre-heated at 37° C. for 10 min. […] In this study, 7-hydroxy-coumarin and Raloxifene were used as the positive control. The final concentration of the positive control compounds was 0.2 μM, and the final concentration of the test compound was 1 μM. The culture solution was incubated in water bath at 37° C. 4. At 0.5, 5, 15, 30 and 60 min, volume aliquots were taken from the reaction solution and the reaction was stopped by adding acetonitrile. The samples were centrifuged for 30 min. The supernatant was taken and mixed with ultrapure water for subsequent LC-MS/MS analysis. 5. Data analysis: All calculation was conducted using Microsoft Excel. Peak areas were determined and slope values were calculated based on the extracted ion chromatograms.

Series [3] has as its target T2, GIPR (Homo sapiens, UniProt P48546).
T2 construct: host or cells: CHO
T2 sequence (P48546 22-466): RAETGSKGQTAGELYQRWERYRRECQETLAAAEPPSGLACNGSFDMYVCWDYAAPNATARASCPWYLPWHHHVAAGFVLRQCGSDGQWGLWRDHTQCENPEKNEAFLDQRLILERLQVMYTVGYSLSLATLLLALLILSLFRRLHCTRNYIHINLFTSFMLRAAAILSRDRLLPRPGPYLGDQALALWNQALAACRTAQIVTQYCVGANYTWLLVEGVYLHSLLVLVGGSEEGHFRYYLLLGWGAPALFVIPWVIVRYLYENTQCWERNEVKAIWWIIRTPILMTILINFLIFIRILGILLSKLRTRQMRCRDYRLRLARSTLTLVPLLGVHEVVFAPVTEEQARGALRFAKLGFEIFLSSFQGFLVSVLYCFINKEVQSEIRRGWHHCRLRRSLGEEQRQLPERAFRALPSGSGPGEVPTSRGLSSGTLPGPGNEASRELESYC
Description: In vitro GIPR agonistic activity test (cAMP, CHO cell line). The settings on record: CHO cells expressing GIPR, read-out: GIP-1 EC50. Format: cell-based. The protocol:
as §1, §2, §3, §4, §5, §6

The target in series [4] is T3, GCGR (Homo sapiens, UniProt P47871).
T3 construct: host or cells: HEK293
T3 sequence (P47871 26-477, species assumed): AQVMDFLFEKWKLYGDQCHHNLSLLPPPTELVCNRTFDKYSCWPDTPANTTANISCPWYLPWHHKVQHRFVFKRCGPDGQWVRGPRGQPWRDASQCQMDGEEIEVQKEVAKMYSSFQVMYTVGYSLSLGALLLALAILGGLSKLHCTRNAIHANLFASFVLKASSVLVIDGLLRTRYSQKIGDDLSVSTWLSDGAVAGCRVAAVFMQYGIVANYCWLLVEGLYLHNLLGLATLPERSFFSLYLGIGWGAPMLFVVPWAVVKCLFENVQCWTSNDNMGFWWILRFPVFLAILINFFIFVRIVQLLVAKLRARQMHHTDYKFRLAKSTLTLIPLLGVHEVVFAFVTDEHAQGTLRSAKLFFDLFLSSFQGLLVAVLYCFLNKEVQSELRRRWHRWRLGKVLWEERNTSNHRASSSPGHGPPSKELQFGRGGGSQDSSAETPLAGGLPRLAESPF
Description: In vitro GCGR agonistic activity test (cAMP, HEK293 cell line). Format: cell-based. As to the method: as §1, §2, §3
2) After digestion with TrypLE, the cells were re-suspended in experimental buffer respectively, and inoculated in a CulturPlate-384 cell culture plate at a density of 2000 cells/well and at a volume of 15 μL/well.
as §4
2) 5 μL of the test compounds were added respectively into experimental wells of the CulturPlate-384 cell culture plate, which was centrifuged at 200 g for 30 s, and left for stand at 37° C. for 30 min.
as §5, §6
5) Envision 2105 was used to collect data, with excitation light at 340 nm and emission light at 665 nm and 615 nm.

Series [5] in a line: Pharmacokinetic properties in Cynomolgus macaques. The settings on record: cynomolgus monkey, in vivo, male cynomolgus macaques, plasma. As to the method:
To test the pharmacokinetic profiles of the compounds in Cynomolgus macaques.
Non-juvenile male cynomolgus macaques were used for experiment, 3 cynomolgus macaques for each compound. Whole blood was collected at time points of 1 h, 2 h, 4 h, 8 h, 16 h, 24 h, 48 h, 72 h, 120 h, 168 h and 240 h after administration, to prepare plasma. The drug concentration was analyzed by LC-MS/MS method, and the pharmacokinetic parameters were calculated using Phoenix WinNonlin software.

The mark [6] stands for this setting: cAMP, HEK293 cells expressing GLP-1R, read-out: GLP-1 EC50.

Read-outs that look alike come from different tables or passages of the source.

T1 sequence (P43220 24-463, species assumed): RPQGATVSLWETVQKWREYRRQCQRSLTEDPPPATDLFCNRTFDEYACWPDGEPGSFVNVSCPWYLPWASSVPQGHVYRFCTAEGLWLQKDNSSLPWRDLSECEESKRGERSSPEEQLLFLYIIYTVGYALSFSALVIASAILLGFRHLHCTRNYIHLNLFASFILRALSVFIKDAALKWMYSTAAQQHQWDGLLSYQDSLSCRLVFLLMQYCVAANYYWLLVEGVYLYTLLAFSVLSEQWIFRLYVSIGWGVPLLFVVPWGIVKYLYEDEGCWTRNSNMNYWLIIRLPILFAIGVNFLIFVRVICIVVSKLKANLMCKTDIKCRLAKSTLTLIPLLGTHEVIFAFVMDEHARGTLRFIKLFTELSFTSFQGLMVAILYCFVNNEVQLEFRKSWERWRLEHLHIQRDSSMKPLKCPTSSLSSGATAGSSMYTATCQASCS

Turning to `CC[C@H](C)[C@H](NC(=O)[C@H](Cc1ccccc1)NC(=O)[C@@H]1CCCCNC(=O)CN(C(=O)COCCOCCNC(=O)COCCOCCNC(=O)CC[C@H](NC(=O)CCCCCCCCCCCCCCCCCCC(=O)O)C(=O)O)CC(=O)NCCCC[C@H](NC(=O)[C@H](CCCCN)NC(=O)[C@H](CC(=O)O)NC(=O)[C@H](CC(C)C)NC(=O)[C@](C)(CC(C)C)NC(=O)[C@@H](NC(=O)[C@H](CO)NC(=O)[C@H](Cc2ccc(O)cc2)NC(=O)[C@H](CC(=O)O)NC(=O)[C@H](CO)NC(=O)[C@@H](NC(=O)[C@H](Cc2ccccc2)NC(=O)[C@@H](NC(=O)CNC(=O)[C@H](CCC(N)=O)NC(=O)C(C)(C)NC(=O)[C@@H](N)Cc2ccc(O)cc2)[C@@H](C)O)[C@@H](C)O)[C@@H](C)CC)C(=O)N[C@@H](C)C(=O)N[C@@H](CCC(N)=O)C(=O)NC(C)(C)C(=O)N1)C(=O)N[C@@H](CCC(=O)O)C(=O)N[C@@H](Cc1ccc(O)cc1)C(=O)N[C@@H](CC(C)C)C(=O)N[C@@H](CC(C)C)C(=O)N[C@@H](CCC(=O)O)C(=O)NCC(=O)NCC(=O)N1CCC[C@H]1C(=O)N[C@@H](CO)C(=O)N[C@@H](CO)C(=O)NCC(=O)N[C@@H](C)C(=O)N1CCC[C@H]1C(=O)N1CCC[C@H]1C(=O)N1CCC[C@H]1C(=O)N[C@@H](CO)C(N)=O` [Example 1, YAibQGT FTSDY SIα- MeLLD K^1KAQAib ^1KFIEY LLEGG PSSGA PPPS-NH2 (SEQ ID NO: 1)], the EC50 (as a rule, the concentration needed to bring the measured effect to its halfway point) in series [1] (setting [6]) was 9 pM; in series [3] it was 1 pM. The same compound had a half-life at 1 μM in series [2] greater than 3.08 h. For the same compound, the microsomal CLint (in general, the capacity of the preparation to metabolise the compound, expressed as a volume cleared per time) at 1 μM in series [2] was less than 3.75 µL/min/mg.

For `CC[C@H](C)[C@H](NC(=O)[C@H](Cc1ccccc1)NC(=O)[C@H](C)NC(=O)C(C)(C)NC(=O)[C@H](CCC(N)=O)NC(=O)[C@H](C)NC(=O)[C@@H]1CCCCNC(=O)CN(C(=O)COCCOCCNC(=O)CC[C@H](NC(=O)CCCCCCCCCCCCCCCCCCC(=O)O)C(=O)O)CC(=O)NCCCC[C@H](NC(=O)[C@](C)(CC(C)C)NC(=O)[C@@H](NC(=O)[C@H](CO)NC(=O)[C@H](Cc2ccc(O)cc2)NC(=O)[C@H](CC(=O)O)NC(=O)[C@H](CO)NC(=O)[C@@H](NC(=O)[C@](C)(Cc2ccccc2)NC(=O)[C@@H](NC(=O)CNC(=O)[C@H](CCC(N)=O)NC(=O)C(C)(C)NC(=O)[C@@H](N)Cc2ccc(O)cc2)[C@@H](C)O)[C@@H](C)O)[C@@H](C)CC)C(=O)N[C@@H](CC(=O)O)C(=O)N[C@@H](CCCCN)C(=O)N1)C(=O)N[C@@H](CCC(=O)O)C(=O)N[C@@H](Cc1ccc(O)cc1)C(=O)N[C@@H](CC(C)C)C(=O)N[C@@H](CC(C)C)C(=O)N[C@@H](CCCCN)C(=O)NCC(=O)NCC(=O)N1CCC[C@H]1C(=O)N[C@@H](CO)C(=O)N[C@@H](CO)C(=O)NCC(=O)N[C@@H](C)C(=O)N1CCC[C@H]1C(=O)N1CCC[C@H]1C(=O)N1CCC[C@H]1C(=O)N[C@@H](CO)C(N)=O` [Example 51, YAibQGT α-MeFTSDY SIα- MeL^1KD K^1KAQAib AFIEY LLKGG PSSGA PPPS-NH2 (SEQ ID NO: 43)], the EC50 in series [4] (cAMP, HEK293 cells expressing GCGR, read-out: GCG EC50) turned out to be 25 pM; in series [1] (setting [6]), 1 pM.

Regarding `CC[C@H](C)[C@H](NC(=O)[C@H](Cc1ccccc1)NC(=O)[C@H](C)NC(=O)C(C)(C)NC(=O)[C@H](CCC(N)=O)NC(=O)[C@H](C)NC(=O)[C@@H]1CCCCNC(=O)CN(C(=O)COCCOCCNC(=O)[C@@H](N)CCCCNC(=O)CC[C@H](NC(=O)CCCCCCCCCCCCCCCCCCC(=O)O)C(=O)O)CC(=O)NCCCC[C@H](NC(=O)[C@](C)(CC(C)C)NC(=O)[C@@H](NC(=O)[C@H](CO)NC(=O)[C@H](Cc2ccc(O)cc2)NC(=O)[C@H](CC(=O)O)NC(=O)[C@H](CO)NC(=O)[C@@H](NC(=O)[C@H](Cc2ccccc2)NC(=O)[C@@H](NC(=O)CNC(=O)[C@H](CCC(N)=O)NC(=O)C(C)(C)NC(=O)[C@@H](N)Cc2ccc(O)cc2)[C@@H](C)O)[C@@H](C)O)[C@@H](C)CC)C(=O)N[C@@H](CC(=O)O)C(=O)N[C@@H](CCCCN)C(=O)N1)C(=O)N[C@@H](CCC(=O)O)C(=O)N[C@@H](Cc1ccc(O)cc1)C(=O)N[C@@H](CC(C)C)C(=O)N[C@@H](CC(C)C)C(=O)N[C@@H](CCC(=O)O)C(=O)NCC(=O)NCC(=O)N1CCC[C@H]1C(=O)N[C@@H](CO)C(=O)N[C@@H](CO)C(=O)NCC(=O)N[C@@H](C)C(=O)N1CCC[C@H]1C(=O)N1CCC[C@H]1C(=O)N1CCC[C@H]1C(=O)N[C@@H](CO)C(N)=O` [Example 52, YAibQGT FTSDY SIα- MeL^1KD K^1KAQAib AFIEY LLEGG PSSGA PPPS-NH2 (SEQ ID NO: 24)], the EC50 in series [4] was found to be 25 pM; in series [1], 3 pM. The AUC(0-t) in series [5] (read-out: AUC0-240 h) turned out to be 5.23 µM·h. Besides, the AUC(0-inf) in series [5] (read-out: AUCINF) came out at 6.61 µM·h. Further, the Cmax (usually the peak of the concentration-time curve) in series [5] (read-out: Cmax) was determined as 36.2 nM. Further, the half-life in series [5] (read-out: T1/2 (converted)) is 97.8 h. In addition, the Tmax (in general, the time from dosing to the highest level) in series [5] (read-out: Tmax) turned out to be 29.3 h.
